Results: PubChem BioAssay AID1671438

Biological target: Tyrosine-protein kinase Yes (Homo sapiens) (UniProt P07947)
Assay: inhibitors of human YES1 tyrosine kinase activity – biochemical, Z'-LYTE, FRET readout, direct format, dose response (AID 1671438)
Settings: recombinant YES1

Chain of Tyrosine-protein kinase Yes (Homo sapiens) (P07947 whole entry, looked up): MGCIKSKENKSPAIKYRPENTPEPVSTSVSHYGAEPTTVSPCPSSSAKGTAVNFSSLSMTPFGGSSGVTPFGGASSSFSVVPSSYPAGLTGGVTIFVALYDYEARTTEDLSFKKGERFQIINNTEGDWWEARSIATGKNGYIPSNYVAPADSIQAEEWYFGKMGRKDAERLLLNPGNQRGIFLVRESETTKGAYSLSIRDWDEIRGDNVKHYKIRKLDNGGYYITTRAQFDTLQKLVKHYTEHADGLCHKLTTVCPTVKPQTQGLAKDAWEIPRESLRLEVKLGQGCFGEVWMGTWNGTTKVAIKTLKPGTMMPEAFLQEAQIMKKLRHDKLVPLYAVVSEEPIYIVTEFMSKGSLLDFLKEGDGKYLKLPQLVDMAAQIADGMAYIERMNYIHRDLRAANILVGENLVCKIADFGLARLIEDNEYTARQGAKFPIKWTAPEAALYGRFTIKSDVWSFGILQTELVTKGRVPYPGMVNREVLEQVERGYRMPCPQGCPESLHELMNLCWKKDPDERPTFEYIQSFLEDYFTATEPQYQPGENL

IC50: 924 nM
SMILES: COc1cc2ncnc(Nc3cccc(Cl)c3)c2cc1OC
